{
  "source": "patent US20030091555A1",
  "about": "“Bactericidal composition containing peptide and chelating agent” (NATIONAL AGRICULTURAL RESEARCH ORGANIZATION, priority 2001, published 2003)",
  "key": {"[1]": {"system": "test bacteria (food poisoning bacteria)", "experiment": "MIC/MBC, text summary over the test bacteria", "assay_type": "cell-based", "details": "for MBC: added alone", "experimental": "(§1) Bacillus cereus was inoculated into a sensitive measurement medium (manufactured by Nissui Pharmaceutical Co., Ltd., Tokyo, Japan), and other bacteria such as food poisoning bacteria were inoculated into an LB medium (1% polypeptone, 0.5% yeast extract, 0.5% sodium chloride, pH 7.2) and incubated at 37° C. for 1 day.\n(§2) Then, after adding predetermined amounts of thionin and EDTA, the bacteria were inoculated so that the concentration of bacteria was about 1×10^6 cells/mL. After cultivating the bacteria for 1 day for other bacteria, the viable count was measured by a method of diluted plate culture. The concentration in which the viable count was decreased to 1/100 or less was defined as minimum bactericidal concentration (MBC) and the concentration in which the viable count was not increased was defined as minimum inhibitory concentration (MIC). The results obtained are shown in Tables 1, 2 and 3, as well as in FIG. 1."}, "[2]": {"system": "Bacillus cereus JCM 2152", "experiment": "MIC/MBC by viable count after 1 day cultivation", "assay_type": "cell-based", "details": "sensitive measurement medium, 37° C.", "experimental": "as §1, §2"}, "[3]": {"system": "Salmonella enteritidis IFO 3313", "experiment": "MIC/MBC by viable count after 1 day cultivation", "assay_type": "cell-based", "details": "LB medium, 37° C.", "experimental": "as §1, §2"}, "[4]": {"system": "Vibrio parahaemolyticus IFO 12711", "experiment": "MIC/MBC by viable count after 1 day cultivation", "assay_type": "cell-based", "details": "LB medium, 37° C.", "experimental": "as §1, §2"}, "[5]": {"system": "Escherichia coli 01:K1:H7 JCM 1649", "experiment": "MIC/MBC by viable count after 1 day cultivation", "assay_type": "cell-based", "details": "LB medium, 37° C.", "experimental": "as §1, §2"}, "[6]": {"system": "Salmonella typhimurium JCM 6977", "experiment": "MIC/MBC by viable count after 1 day cultivation", "assay_type": "cell-based", "details": "for synergistic effects with thionin, compared with EDTA-2Na: with alpha-type thionin of wheat 10 μg/mL; for MBC: Salmonella enterica", "experimental": "as §1, §2"}, "[7]": {"system": "Bacillus cereus IFO 15305", "experiment": "MIC/MBC by viable count after 1 day cultivation", "assay_type": "cell-based", "details": "sensitive measurement medium, 37° C.", "experimental": "as §1, §2"}, "[8]": {"system": "Escherichia coli 06 JCM 5491", "experiment": "MIC/MBC by viable count after 1 day cultivation", "assay_type": "cell-based", "details": "for synergistic effects with thionin, compared with EDTA-2Na: with alpha-type thionin of wheat 10 μg/mL; for MBC: Escherichia coli", "experimental": "as §1, §2"}, "[9]": {"system": "E. coli", "details": "high concentration (10 mM); cited from earlier work"}, "[10]": {"details": "as food additive; cited from earlier work"}, "[11]": {"system": "V. parahaemolyticus", "details": "high concentration (10 mM); cited from earlier work"}, "[12]": {"biological_target": "T1, trypsin (Bos taurus, UniProt P00760)", "T1 construct": "gene PRSS1", "T1 sequence (P00760 24-246)": "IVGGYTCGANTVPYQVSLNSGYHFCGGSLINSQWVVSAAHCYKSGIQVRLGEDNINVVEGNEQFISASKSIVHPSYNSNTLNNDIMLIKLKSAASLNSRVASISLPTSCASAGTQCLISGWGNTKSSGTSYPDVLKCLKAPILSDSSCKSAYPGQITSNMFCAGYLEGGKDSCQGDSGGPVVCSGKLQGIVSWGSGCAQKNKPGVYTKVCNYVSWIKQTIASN", "details": "cited from earlier work"}, "[13]": {"system": "guinea pig", "details": "administered once with 103 to 229 mg/kg body weight, observed for 7 days; cited from earlier work"}, "[14]": {"details": "EDTA-2Na added alone, LB medium, 37° C., 1 day"}, "[15]": {"details": "thionin added alone, LB medium, 37° C., 1 day"}},
  "data": [
    {"molecule": "O=C([O-])CN(CCN(CC(=O)[O-])CC(=O)O)CC(=O)O.[Na+].[Na+]", "note": "[EDTA-2Na, EDTA disodium]", "values": [
      {"measurement": "MBC of EDTA-2Na as compared with the addition of EDTA-2Na alone", "setting": "[1]; 10 μg/mL alpha-type thionin of wheat added simultaneously, food poisoning bacteria", "value": "decreased"},
      {"measurement": "MBC", "setting": "[1]; Salmonella sp. and E. coli", "value": "≥ 10000", "unit": "µM"},
      {"measurement": "MBC", "setting": "[1]; other bacteria (not Salmonella sp., E. coli)", "value": "≤ 1000", "unit": "µM"},
      {"measurement": "MBC EDTA-2Na", "setting": "[2]; EDTA-2Na added alone", "value": 500, "unit": "µM"},
      {"measurement": "MBC EDTA-2Na", "setting": "[3]; EDTA-2Na added alone", "value": "50< mM"},
      {"measurement": "MBC EDTA-2Na", "setting": "[4]; EDTA-2Na added alone", "value": 1000, "unit": "µM"},
      {"measurement": "MBC EDTA-2Na", "setting": "[5]; EDTA-2Na added alone", "value": 50000, "unit": "µM"},
      {"measurement": "MBC EDTA-2Na", "setting": "[6]; [14]", "value": 20000, "unit": "µM"},
      {"measurement": "MBC EDTA-2Na", "setting": "[7]; EDTA-2Na added alone", "value": 200, "unit": "µM"},
      {"measurement": "MBC EDTA-2Na", "setting": "[8]; [14]", "value": 10000, "unit": "µM"}
    ]},
    {"molecule": "O=C([O-])CN(CCN(CC(=O)[O-])CC(=O)[O-])CC(=O)[O-].[Na+].[Na+].[Na+].[Na+]", "note": "[EDTA-4Na, EDTA-tetrasodium salt]", "values": [
      {"measurement": "synergistic effects with thionin, compared with EDTA-2Na", "setting": "[6]", "value": "identical to or higher than that of EDTA-2Na"},
      {"measurement": "synergistic effects with thionin, compared with EDTA-2Na", "setting": "[8]", "value": "identical to or higher than that of EDTA-2Na"}
    ]},
    {"molecule": "O=C(O)CN(CCN(CC(=O)O)CC(=O)O)CC(=O)O", "note": "[EDTA, ethylenediaminetetraacetic acid]", "values": [
      {"measurement": "antibacterial activity", "setting": "[9]", "value": "shows antibacterial activity"},
      {"measurement": "ADI (Acceptable Daily Intake)", "setting": "[10]", "value": 2.5, "unit": "mg/kg body weight"},
      {"measurement": "antibacterial activity", "setting": "[11]", "value": "shows antibacterial activity"},
      {"measurement": "MBC", "setting": "[6]; Thionin (10 μg/mL) +: with alpha-type thionin of wheat", "value": 0.0001, "unit": "µM"},
      {"measurement": "MBC", "setting": "[6]; Thionin (10 μg/mL) −: without alpha-type thionin of wheat", "value": 0.005, "unit": "µM"},
      {"measurement": "synergistic effects with thionin, compared with EDTA-2Na", "setting": "[6]", "value": "identical to or higher than that of EDTA-2Na"},
      {"measurement": "MBC", "setting": "[8]; JCM5491, Thionin (10 μg/mL) +: with alpha-type thionin of wheat", "value": 0.001, "unit": "µM"},
      {"measurement": "MBC", "setting": "[8]; JCM5491, Thionin (10 μg/mL) −: without alpha-type thionin of wheat", "value": 0.005, "unit": "µM"},
      {"measurement": "synergistic effects with thionin, compared with EDTA-2Na", "setting": "[8]", "value": "identical to or higher than that of EDTA-2Na"}
    ]},
    {"molecule": "thionin [reference compound]", "values": [
      {"measurement": "decomposition by a digestive enzyme", "setting": "[12]", "value": "rapid decomposition"},
      {"measurement": "MIC Thionin", "setting": "[2]; thionin added alone", "value": 100, "unit": "µg/mL"},
      {"measurement": "MIC Thionin", "setting": "[3]; thionin added alone", "value": "100< μg/mL"},
      {"measurement": "MIC Thionin", "setting": "[4]; thionin added alone", "value": 20, "unit": "µg/mL"},
      {"measurement": "MIC Thionin", "setting": "[5]; thionin added alone", "value": "100< μg/mL"},
      {"measurement": "MIC Thionin", "setting": "[6]; [15]", "value": 30, "unit": "µg/mL"},
      {"measurement": "MIC Thionin", "setting": "[7]; thionin added alone", "value": "100< μg/mL"},
      {"measurement": "MIC Thionin", "setting": "[8]; [15]", "value": 100, "unit": "µg/mL"},
      {"measurement": "abnormality after administration", "setting": "[13]", "value": "no abnormality was observed"}
    ]}
  ]
}
